Patent US7470821B2, “Aldolase-inhibiting aromatic compounds” (Valorisation-Recherche, Limited Partnership, priority 2003, dated 2008)
Numbering of substitutions follows the chain as printed. Values joined by “and” are separate entries in the source; they are usually repeats but may differ in a detail not shown here. Identical values can stand only once. Like-named read-outs stand apart in the source and are kept apart here.

Experiments:
K146M mutant RM aldolase = biological target: T1, K146M mutant RM aldolase (Oryctolagus cuniculus, UniProt P00883, K147M); assay: UV-visible differential spectroscopy (method A) with mutated aldolase K146M; assay type: binding, rabbit; details: FHN-P 300 μM; for kapp: 431 nm
T1 construct: made in house
T1 sequence (P00883 1-364 K147M): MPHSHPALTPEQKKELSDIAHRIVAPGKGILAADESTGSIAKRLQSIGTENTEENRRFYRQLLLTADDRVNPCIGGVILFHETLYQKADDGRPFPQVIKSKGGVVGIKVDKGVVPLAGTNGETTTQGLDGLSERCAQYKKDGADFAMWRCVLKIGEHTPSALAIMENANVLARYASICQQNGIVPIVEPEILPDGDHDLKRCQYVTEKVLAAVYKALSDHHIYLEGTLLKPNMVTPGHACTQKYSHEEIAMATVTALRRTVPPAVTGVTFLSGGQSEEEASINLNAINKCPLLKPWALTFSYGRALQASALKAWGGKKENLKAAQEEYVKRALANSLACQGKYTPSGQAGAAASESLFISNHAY
Description: (§1) For method A, absorption spectra are recorded as a function of time, between 250 and 500 nm, or at wavelengths corresponding to maximum or minimum absorption. Measurements are begun by adding FHN-P at varying final concentrations (0.1-1 mM) in the TEA buffer containing a fixed concentration of aldolase (10 μM of subunits). Measured absorption spectra for the enzyme complex are corrected using the absorbance of the buffer, the FHN—P, and the enzyme (measured separately). The differential absorption spectra thus obtained are used to calculate the value of the constants that define the formation of the aldolase-inhibitor complex.
(§2) Every UV-visible differential test spectroscopy test using mutated aldolases (10 μM of subunits) is carried out using method A. • Monitored by Electrospray Ionization Mass Spectrometry (ESI-MS).
(§3) Residues of lysine 106, 146 and 229 residues are located at the active aldolase sites and thus are candidates for causing inactivation by forming a Schiff base with the FHN-P. In order to identify which lysine is responsible for the differential absorbances in the presence of FHN-P, sporadic mutations of these lysine residues were created and named: K107M (Research Collaboratory for Structural Bioinformatics Protein Databank), K146M (Blonski C. et al., 1997, Biochem. J. 323:71-77) and […] (Research Collaboratory for Structural Bioinformatics Protein Databank). […] UV-visible differential spectroscopy (method A) was used to examine formation of the enzyme complex for each sporadic mutation in the presence of a fixed concentration of FHN-P (300 μM).

[1] = biological target: T2, native (wild-type) rabbit muscle aldolase (Oryctolagus cuniculus, UniProt P00883); assay: UV-visible differential spectroscopy (method A) of aldolase-inhibitor complex formation; assay type: binding; details: for ΔA relative to 432 nm / kapp: wild-type; for kapp: 431 nm
T2 construct: made in house
T2 sequence (P00883 2-364): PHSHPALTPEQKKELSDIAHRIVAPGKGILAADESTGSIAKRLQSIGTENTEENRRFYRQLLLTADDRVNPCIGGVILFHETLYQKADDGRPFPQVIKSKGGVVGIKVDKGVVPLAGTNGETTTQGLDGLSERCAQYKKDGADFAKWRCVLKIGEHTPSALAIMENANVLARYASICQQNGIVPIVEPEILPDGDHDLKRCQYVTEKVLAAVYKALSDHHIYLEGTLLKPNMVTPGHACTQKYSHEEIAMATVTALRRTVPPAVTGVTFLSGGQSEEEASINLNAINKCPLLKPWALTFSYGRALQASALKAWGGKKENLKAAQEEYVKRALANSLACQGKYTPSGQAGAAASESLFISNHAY
Description: Absorption spectra are measured using a Cary 1E Varian spectrophotometer at 25° C. The same TEA buffer is used for titrations and activity analyses. Absorption spectra are measured by two different methods, in particular as described in Gefflaut T. et al., 1986 (Bioorg. Med. Chem., 4:2043-2054) and Blonski C. et al., 1997 (Biochem J. 323:71-77).
as §1
The apparent first-order rate constant (kapp) and the maximum threshold variations of absorption (ΔAmax) are obtained for each test by applying the slow-binding absorption data to the first-order kinetic equation (or to both first-order kinetic mechanisms). The dissociation constant (Kd) for the Schiff base formed between the FHN-P and the aminocaproic acid is obtained from the absorption differences calculated at equilibrium by using the equation eqn.(2). The value of the dissociation constant (Ki) for the rapidly formed EI complex and that of the constant k2 correspond to the slow formation of the EI* complex resulting from analysis of the values of the first-order constants based on the equations eqn.(1) or eqn.(3).
The slight differences in band positions with the reaction model may be attributed to differences in the FHN-P protein environment in comparison to the model system. The changing spectra of absorbance differences coincides with two distinct first-order mechanisms. The rapid kinetics phase can be seen in a more significant change in absorbance and saturating behavior at a high inhibitor concentration, correlated with a total loss of enzyme activity. A slow kinetics phase can also be seen when the analyses are carried out at saturating concentrations of hexitol-P2 (10 mM). This slow kinetics phase, which corresponds to a constant thirty times weaker and which contributes to one-fourth of the final absorbance variation is not linked to the inhibition observed. At these saturating concentrations, the molar absorption coefficients relative to the linked FHN-P are calculated assuming that the for active aldolase sites are occupied: Δε431=3600±200 M^−1.cm^−1; Δε376=−2140±110 M^−1.cm^−1; Δε293=12480±650 M^−1.cm^−1; and Δε268=5080±250 M^−1.cm^−1.
as §3

K229M mutant RM aldolase = biological target: T3, K229M mutant RM aldolase (Oryctolagus cuniculus, UniProt P00883, K230M); assay: UV-visible differential spectroscopy (method A) with mutated aldolase K229M; assay type: binding, rabbit; details: FHN-P 300 μM; for kapp: 431 nm
T3 construct: made in house
T3 sequence (P00883 1-364 K230M): T1 sequence (P00883 1-364 K147M) with M147K, K230M
Description: as §1, §2, §3

[2] = formation of EI* complex, UV-visible differential spectroscopy
[3] = FHN-P 300 μM, first (rapid) phase
[4] = FHN-P 300 μM, second (slow) phase

## O=Cc1c(O)ccc2cc(OP(=O)(O)O)ccc12 [FHN-P, 5-formyl-6-hydroxy-2-naphthylphosphate]
K146M mutant RM aldolase
  Residual specific activity: ud
K146M mutant RM aldolase; first phase
  ΔA relative to 432 nm: 98%
K146M mutant RM aldolase; first phase (associated with inhibition)
  kapp: 0.005 ± 0.0005 min⁻¹
K146M mutant RM aldolase; second (slow) phase
  ΔA relative to 432 nm: 25%
  kapp: 0.0015 ± 0.0003 min⁻¹
[1]; EI complex, UV-visible differential spectroscopy, FHN-P 0.1-1 mM, aldolase 10 μM subunits, 25° C, read-out: Ki
  Ki: 125000 ± 25000 nM
[1]; calculated from the spectroscopy results, read-out: global inhibition constant Ki*
  Ki: 25 nM and ~25 nM
[1]; [2]
  k2: 0.067 ± 0.004 min⁻¹
  t1/2: ~6 min
[1]; maximum inhibition, EI* complex
  stoichiometry of FHN-P linked per tetrameric aldolase: 3.9-4.2 mols of FHN-P linked per tetrameric aldolase mole
[1]; wild-type aldolase, FHN-P 300 μM
  Residual specific activity: ud (undetected)
[1]; [3]
  ΔA relative to 432 nm: 100%
  kapp: 0.045 ± 0.0025 min⁻¹
[1]; [4]
  ΔA relative to 432 nm: 25%
  kapp: 0.0015 ± 0.00035 min⁻¹
K229M mutant RM aldolase
  Residual specific activity: ud
K229M mutant RM aldolase; first (rapid) phase
  ΔA relative to 432 nm: 95%
  kapp: 0.040 ± 0.0025 min⁻¹
K229M mutant RM aldolase; second (slow) phase
  ΔA relative to 432 nm: 25%
  kapp: 0.0015 ± 0.0003 min⁻¹
